Data as given in ChEMBL document CHEMBL3739369, “Identification of Elaiophylin Skeletal Variants from the Indonesian Streptomyces sp. ICBB 9297” (2015).
≈ marks a conversion by molar mass, not a printed value.

Tests used:
Type in all cases: functional
Bacillus subtilis = assay: Antimicrobial activity against Bacillus subtilis ATCC 6051 for 17 to 48 hrs by MTT assay
Pseudomonas aeruginosa = assay: Antimicrobial activity against Pseudomonas aeruginosa ATCC 9721 for 17 to 48 hrs by MTT assay
[1] = tested on: Mycolicibacterium smegmatis; assay: Antimicrobial activity against Mycobacterium smegmatis ATCC 14468 for 17 to 48 hrs by MTT assay
Staphylococcus aureus = assay: Antimicrobial activity against Staphylococcus aureus ATCC 12600 for 17 to 48 hrs by MTT assay
Escherichia coli = assay: Antimicrobial activity against Escherichia coli ATCC 11775 for 17 to 48 hrs by MTT assay

SMILES	MIC (Bacillus subtilis) [µg/mL]	MIC (Pseudomonas aeruginosa) [µg/mL]	MIC [1] [µg/mL]	MIC (Staphylococcus aureus) [µg/mL]	MIC (Escherichia coli) [µg/mL]
CC[C@@H]1[C@@H](C)O[C@@](O)([C@@H](C)[C@H](O)[C@H](C)[C@H]2OC(=O)/C=C/C=C/[C@H](C)[C@@H]([C@@H](C)[C@@H](O)[C@H](C)[C@@]3(O)C[C@@H](O[C@H]4C[C@H](O)[C@H](O)[C@H](C)O4)[C@H](CC)[C@@H](C)O3)OC(=O)/C=C/C=C/[C@@H]2C)C[C@H]1O[C@H]1C[C@H](O)[C@H](O)[C@H](C)O1	> 100	> 100	> 100	0.78 (≈ 0.761 µM)	> 100
CC1(C)S[C@@H]2[C@H](NC(=O)[C@H](N)c3ccccc3)C(=O)N2[C@H]1C(=O)O [AMPICILLIN]	0.78 (≈ 2.23 µM)	1.56 (≈ 4.46 µM)	> 100	0.78 (≈ 2.23 µM)	6.25 (≈ 17.9 µM)
CC[C@@H]1[C@@H](C)O[C@@](OC)([C@@H](C)[C@H](O)[C@H](C)[C@H]2OC(=O)/C=C/C=C/[C@H](C)[C@@H]([C@@H](C)[C@@H](O)[C@H](C)[C@@]3(O)C[C@@H](O[C@H]4C[C@H](O)[C@H](O)[C@H](C)O4)[C@H](CC)[C@@H](C)O3)OC(=O)/C=C/C=C/[C@@H]2C)C[C@H]1O[C@H]1C[C@H](O)[C@H](O)[C@H](C)O1	> 100	> 100	> 100	1.56 (≈ 1.5 µM)	> 100
CC[C@@H]1[C@@H](C)O[C@@](OC)([C@@H](C)[C@H](O)[C@H](C)[C@H]2OC(=O)/C(C)=C/C=C/[C@H](C)[C@@H]([C@@H](C)[C@@H](O)[C@H](C)[C@@]3(OC)C[C@@H](O[C@H]4C[C@H](O)[C@H](O)[C@H](C)O4)[C@H](CC)[C@@H](C)O3)OC(=O)/C(C)=C/C=C/[C@@H]2C)C[C@H]1O[C@H]1C[C@H](O)[C@H](O)[C@H](C)O1	> 100	> 100	> 100	3.13 (≈ 2.89 µM)	> 100

Other lines, results leading:

MIC (Bacillus subtilis) [µg/mL]	MIC (Pseudomonas aeruginosa) [µg/mL]	MIC [1] [µg/mL]	MIC (Staphylococcus aureus) [µg/mL]	MIC (Escherichia coli) [µg/mL]	SMILES
> 100	> 100	6.25 (≈ 5.86 µM)	1.56 (≈ 1.46 µM)	> 100	CC[C@@H]1[C@@H](C)O[C@@](OC)([C@@H](C)[C@H](O)[C@H](C)[C@H]2OC(=O)/C=C/C=C/[C@H](C)[C@@H]([C@@H](C)[C@@H](O)[C@H](C)[C@@]3(OC)C[C@@H](O[C@H]4C[C@H](O)[C@H](O)[C@H](C)O4)[C@H](CC)[C@@H](C)O3)OC(=O)/C(C)=C/C=C/[C@@H]2C)C[C@H]1O[C@H]1C[C@H](O)[C@H](O)[C@H](C)O1
–	–	0.39 (≈ 0.723 µM)	–	–	CN[C@@H]1[C@@H](O[C@H]2O[C@H](CO)[C@@H](N)[C@H](O)[C@H]2O)O[C@H]2C[C@@H](N)[C@@H](O[C@H]3[C@H](O)[C@@H](O)[C@H](N)C[C@@H]3N)O[C@@H]2[C@@H]1O
> 100	> 100	> 100	1.56 (≈ 1.48 µM)	> 100	CC[C@@H]1[C@@H](C)O[C@@](OC)([C@@H](C)[C@H](O)[C@H](C)[C@H]2OC(=O)/C=C/C=C/[C@H](C)[C@@H]([C@@H](C)[C@@H](O)[C@H](C)[C@@]3(OC)C[C@@H](O[C@H]4C[C@H](O)[C@H](O)[C@H](C)O4)[C@H](CC)[C@@H](C)O3)OC(=O)/C=C/C=C/[C@@H]2C)C[C@H]1O[C@H]1C[C@H](O)[C@H](O)[C@H](C)O1
> 100	> 100	6.25 (≈ 6.01 µM)	0.78 (≈ 0.751 µM)	> 100	CC[C@@H]1[C@@H](C)O[C@@](O)([C@@H](C)[C@H](O)[C@H](C)[C@H]2OC(=O)/C=C/C=C/[C@H](C)[C@@H]([C@@H](C)[C@@H](O)[C@H](C)[C@@]3(O)C[C@@H](O[C@H]4C[C@H](O)[C@H](O)[C@H](C)O4)[C@H](CC)[C@@H](C)O3)OC(=O)/C(C)=C/C=C/[C@@H]2C)C[C@H]1O[C@H]1C[C@H](O)[C@H](O)[C@H](C)O1
